PMC3923439, “Anti-inflammatory properties of a novel peptide interleukin 1 receptor antagonist” (Journal of Neuroinflammation, 2014)
Positions of bridges follow the written chain, without caps; N, C: chain ends. Chains are numbered I, II in the order given. No end group written: not given here.

Legend:
AMJ2-C8 macrophages = assay: TNF-α secretion from IL-1β-activated macrophages (L929 bioassay); type: cell-based, mouse; conditions: 1.2 pM IL-1β, 24 hours; TNF-α by L929 survival with actinomycin D; hydrocortisone at 100 μM
Procedure: A murine alveolar macrophage cell line, AMJ2-C8 (American Type Culture Collection, Borås, Sweden), was routinely grown at 37°C with 5% CO2 in DMEM supplemented with 5% (vol/vol) FCS, 0.5% (v/v) 2-[4-(2-hydroxyethyl)piperazin-1-yl]ethanesulfonic acid (HEPES) (Gibco BRL), 2 mM GlutaMAX, 100 U/ml penicillin and 100 μg/ml streptomycin.
AMJ2-C8 macrophages were seeded into six-well multidishes at a density of 2.5 × 10^5 cells/well, and sIL-1RI, IL-1Ra or various concentrations of Ilantide were added to the cultures. Treatment with 100 μM hydrocortisone (Sigma-Aldrich, Brøndby, Denmark) was used as a positive control. After 10-minute incubation at 37°C, 1.2 pM IL-1β or IFN-γ (R&D Systems) was added to activate the macrophages. L929 cells were seeded onto a 96-well plate (Nunc, Roskilde, Denmark) at a density 0.2 × 10^2 cells/ml. Both cell cultures were incubated for 24 hours at 37°C. Conditioned medium from macrophages was collected and added to the L929 cell cultures together with actinomycin D (0.6 μg/well; Sigma-Aldrich). TNF-α is known to induce classic apoptosis in L929 cells in the presence of actinomycin D [12]. After 24-hour incubation at 37°C, 20 μl of 3-(4,5-dimethylthiazol-2-yl)-5-(3-carboxymethoxyphenyl)-2-(4-sulfophenyl)-2H-tetrazolium (Promega, Madison, WI, USA) were added to each well and incubated at 37°C in the dark for 45 minutes, then measured in an ELISA reader at 490 nm. To calculate the amount of TNF-α in the conditioned medium, fibroblasts were treated with standard concentrations of TNF-α (R&D Systems).

[1] = test system: collagen-induced arthritis; assay: Collagen-induced arthritis in rats; type: in vivo; conditions: rat, 10 mg/kg s.c. daily dpi 8 to 15, dpi 10 to 16, P < 0.05
Procedure: CIA was induced by bovine collagen type II (CII; Sigma-Aldrich) solubilized in 0.05 M acetic acid (2 mg/ml), then emulsified 1:1 with complete Freund’s adjuvant (CFA) (Sigma-Aldrich) that contained 1.0 mg/ml heat-inactivated Mycobacterium tuberculosis. While the animals were under inhalation anesthesia (3% isoflurane; Baxter, Allerød, Denmark), 250 μl of the emulsion that contained 250 μg of CII and 125 μg of M. tuberculosis were injected intradermally at the tail base (day postimmunization 0 (dpi 0)). […] An observer who was blinded to the treatment groups evaluated the severity of arthritis by employing the following grading system: 0 (no redness or swelling of the foot), 1 (slight redness in the foot or redness and swelling in single interphalangeal joints), 2 (moderate swelling and redness in the ankle and metatarsal part of the foot), 3 (marked swelling and redness of the entire foot, with restricted use of the foot during locomotion) and 4 (marked swelling and redness of the entire foot, with no use of the foot during locomotion). […] The differences in the area under the clinical score curve during the period of observation between the control and peptide-treated groups were calculated, with baseline defined as the start of treatment (that is, 0).

[2] = Pharmacokinetics: plasma and CSF concentration by competitive ELISA; type: in vivo; conditions: rat, single s.c. 10 mg/kg, calculated
Procedure: Biotinylated Ilantide-t (Schafer-N) was administered to adult male Wistar rats subcutaneously (s.c.) at a dose of 10 mg/kg. Twenty minutes, sixty minutes, one hundred forty minutes, five hours and thirty hours after peptide administration, blood samples (approximately 300 μl) were collected from the orbital plexus under fentanyl/droperidol/midazolam anesthesia (0.002%/0.14%/0.014% wt/vol) (Department of Experimental Medicine, University of Copenhagen, Denmark) in ethylenediaminetetraacetic acid–coated tubes (BD, Plymouth, UK), and 50 to 110 U/ml aprotinin (Calbiochem, San Diego, CA, USA) was added immediately to the collected blood. The samples were subsequently centrifuged at 1,500 × g for 15 minutes. Cerebrospinal fluid (CSF) was collected from the cisterna magna 30 minutes after peptide administration as described previously. Plasma and CSF samples were stored at -80°C.
The concentrations of Ilantide-t in plasma and CSF samples were measured by performing a competitive ELISA on amino 96-well plates (Nunc). […] Color development was terminated by the addition of 2 M H2SO4 (100 μl/well), and absorbance was read at 450 nm on a Wallac Victor 1420 multilabel counter (PerkinElmer, Hvidovre, Denmark). Peptide concentrations in the samples were determined using a standard curve. […]

[3] = test system: Aβ25–35-induced social memory deficit; type: in vivo; conditions: rat, Aβ25–35 15 μg i.c.v., Ilantide-t 10 mg/kg s.c., third trial
Procedure: Aggregates of Aβ25-35 (Bachem AG, Weil am Rhein, Germany) were prepared by incubating the peptides at a concentration of 3 μg/μl in sterile water for 4 days at 37°C. Subsequently, 5 μl of aggregated Aβ25-35 were injected intracerebroventricularly (1.2 μl/min) with a 10-μl Hamilton syringe using the following coordinates: 0.8 mm posterior to the bregma, 1.5 mm lateral to the sagittal suture and 3.8 mm beneath the surface of the brain. The procedure was performed while the animals were under anesthesia (i.p. fentanyl-fluanisone/midazolam at 0.3 ml/100-g animal; that is, 23.6 μg of fentanyl, 0.75 mg of fluanisone and 375 μg midazolam per 100-g animal). Social memory in animals reflects the ability of individuals to recognize conspecifics as familiar or unfamiliar. […] During each trial, the investigative behavior of the adult toward the juvenile (that is, licking, sniffing and chewing the fur of the juvenile) was monitored with a video camera and scored by an observer who was blinded to the treatment of the animals. […] The time spent investigating a novel juvenile (T3) was measured to confirm that the effect seen with the familiar juvenile was specific to cognition. In this case, RRnew was calculated as T3/(T1 + T3).

Substance | Inhibition of IL-1β-induced TNF-α secretion in macrophages (AMJ2-C8 macrophages) | Severity of CIA (clinical score, area under the curve) versus vehicle [1] | Plasma half-life [2] | RRnew (recognition ratio with new juvenile) [3]
IL-1Ra: recombinant interleukin 1 receptor antagonist purchased from R&D Systems | significantly inhibited | – | – | –
I: SGRKSSKMQAKK-NH2 / II: SGRKSSKMQAK / III: SGRKSSKMQA / IV: SGRKSSKMQA (amide I:11-IV:C, I:12-II:C, II:11-III:C; C-terminus assumed) [Ilantide-t] | significantly inhibited | significantly attenuated | approximately 2 hours | did not differ from 0.5
